Columns and labels:
Test in all cases: relative viability (nuclei count vs DMSO), 5 days (fraction); higher = more cells survive
[1] = compound: CNC(=O)c1ccccc1Sc1ccc2c(/C=C/c3ccccn3)n[nH]c2c1 [Axitinib] + NC(=O)Nc1cc(-c2cccc(F)c2)sc1C(=O)N[C@H]1CCCNC1 [AZD7762] (partner 0.2 µM)
Outline: (§1)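 Nuclei were stained with Hoechst during a one-step fixation (final 0.05% Triton X-100, 1% formaldehyde, 1 ug/ml Hoechst) carried out 5 days after dosing, then counted on 4× images. The cells, lung cancer lines in 1536-well plates, had been dosed by pin tool the day after seeding with one drug alone or a fixed anchor-drug dose plus five library-drug doses (not always all listed) in √10 steps. Relative viability is the nuclei count in treated wells divided by that in vehicle wells, and each value is the median of duplicate plates.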

[2] = compound: CNC(=O)c1ccccc1Sc1ccc2c(/C=C/c3ccccn3)n[nH]c2c1 [Axitinib] + Cc1cc(Nc2cc(N3CCN(C)CC3)nc(Sc3ccc(NC(=O)C4CC4)cc3)n2)n[nH]1 [Tozasertib] (partner 0.1 µM)
Outline: as §1

[3] = compound: CC1=CC=C(C=C1)C(=O)CN2C3=C(CCCC3)SC2=N [Pifithrin_alpha] + CCNC(=O)c1noc(-c2cc(C(C)C)c(O)cc2O)c1-c1ccc(CN2CCOCC2)cc1 [Luminespib] (partner 0.01 µM)
Outline: as §1

[4] = compound: CNC(=O)c1ccccc1Sc1ccc2c(/C=C/c3ccccn3)n[nH]c2c1 [Axitinib] + N=C(N)NC(=N)NCCc1ccccc1 [Phenformin] (partner 250 µM)
Outline: as §1

Cell Line | relative viability ([1]; first compound 0.005 µM) | relative viability ([1]; first compound 0.01581 µM) | relative viability ([1]; first compound 0.05 µM) | relative viability ([1]; first compound 0.1581 µM) | relative viability ([1]; first compound 0.5 µM) | relative viability ([2]; first compound 0.005 µM) | relative viability ([2]; first compound 0.01581 µM) | relative viability ([2]; first compound 0.05 µM) | relative viability ([2]; first compound 0.1581 µM) | relative viability ([2]; first compound 0.5 µM) | relative viability ([3]; first compound 1 µM) | relative viability ([3]; first compound 3.162 µM) | relative viability ([3]; first compound 10 µM) | relative viability ([3]; first compound 31.62 µM) | relative viability ([3]; first compound 100 µM) | relative viability ([4]; first compound 0.005 µM) | relative viability ([4]; first compound 0.01581 µM) | relative viability ([4]; first compound 0.05 µM) | relative viability ([4]; first compound 0.1581 µM) | relative viability ([4]; first compound 0.5 µM)
NCI-H1437 | 1.14 | 1.13 | 1.07 | 1.08 | 1.03 | 0.403 | 0.465 | 0.406 | 0.459 | 0.511 | 1.27 | 1.2 | 1.08 | 0.728 | 0.947 | 0.335 | 0.314 | 0.357 | 0.277 | 0.299
NCI-H1651 | 0.466 | 0.416 | 0.481 | 0.467 | 0.533 | 0.853 | 0.701 | 0.73 | 0.876 | 0.877 | 0.988 | 1.27 | 0.944 | 0.438 | 0.625 | 0.295 | 0.295 | 0.347 | 0.304 | 0.353
NCI-H1666 | 0.836 | 0.816 | 0.879 | 0.865 | 0.84 | 0.684 | 0.638 | 0.643 | 0.7 | 0.706 | 1.05 | 1.01 | 0.877 | 0.821 | 0.645 | 0.588 | 0.559 | 0.552 | 0.586 | 0.502
NCI-H1734 | 0.64 | 0.573 | 0.56 | 0.579 | 0.668 | 0.278 | 0.268 | 0.274 | 0.241 | 0.25 | 0.184 | 0.186 | 0.191 | 0.159 | 0.18 | 0.423 | 0.401 | 0.371 | 0.404 | 0.366
NCI-H1755 | 0.509 | 0.435 | 0.454 | 0.524 | 0.47 | 0.608 | 0.541 | 0.605 | 0.632 | 0.617 | 0.5 | 0.601 | 0.562 | 0.315 | 0.272 | 0.62 | 0.613 | 0.604 | 0.634 | 0.658
NCI-H1793 | 0.514 | 0.394 | 0.565 | 0.304 | 0.486 | 0.311 | 0.311 | 0.46 | 0.346 | 0.351 |  | 0.168 | 0.17 | 0.186 | 0.194 | 0.393 | 0.4 | 0.415 | 0.358 | 0.328
NCI-H1915 | 0.743 | 0.671 | 0.71 | 0.713 | 0.717 | 0.458 | 0.491 | 0.443 | 0.464 | 0.655 | 0.972 | 1.25 |  |  | 1.08 | 0.385 | 0.362 | 0.371 | 0.35 | 0.393
NCI-H1944 | 0.586 | 0.441 | 0.506 | 0.447 | 0.541 | 0.238 | 0.258 | 0.264 | 0.263 | 0.297 | 0.694 | 0.633 | 0.588 | 0.42 | 0.504 | 0.204 | 0.199 | 0.206 | 0.191 | 0.189
NCI-H1975 | 0.743 | 0.733 | 0.698 | 0.715 | 0.816 | 0.79 | 0.819 | 0.719 | 0.875 | 0.867 | 0.291 | 0.151 | 0.199 | 0.189 | 0.181 | 0.436 | 0.43 | 0.408 | 0.391 | 0.446
NCI-H1993 | 0.819 | 0.933 | 0.746 | 0.883 | 0.818 | 0.617 | 0.59 | 0.592 | 0.607 | 0.641 | 0.716 | 0.658 | 0.704 | 0.621 | 0.66 | 0.494 | 0.514 | 0.496 | 0.592 | 0.529
NCI-H2085 | 1.04 | 0.908 | 1.03 | 0.983 | 0.952 | 0.652 | 0.771 | 0.807 | 0.827 | 0.913 |  | 0.404 | 0.513 | 0.387 | 0.387 | 0.767 | 0.728 | 0.742 | 0.751 | 0.733
NCI-H2087 | 1.37 | 1.42 | 1.47 | 1.25 | 1.43 | 0.247 | 0.294 | 0.282 | 0.321 | 0.357 | 0.169 | 0.172 | 0.153 |  | 0.135 | 0.48 | 0.418 | 0.51 | 0.444 | 0.563
NCI-H2126 | 0.936 | 0.997 | 0.996 | 0.97 | 1.01 | 0.919 | 0.859 | 0.833 | 0.886 | 1 | 0.751 | 0.956 | 0.783 | 0.709 | 0.72 | 0.528 | 0.555 | 0.548 | 0.552 | 0.564
NCI-H2170 | 1.13 | 0.958 | 0.948 | 0.792 | 0.87 | 0.72 | 0.63 | 0.768 | 0.774 | 0.838 | 0.849 | 0.53 | 0.742 | 0.542 | 0.705 | 0.435 | 0.412 | 0.468 | 0.415 | 0.5
NCI-H2342 | 0.554 | 0.437 | 0.688 | 0.513 | 0.429 | 0.618 | 0.685 | 0.448 | 0.593 | 0.528 | 0.653 | 0.665 | 0.699 | 0.773 | 0.71 | 0.648 | 0.636 | 0.636 | 0.591 | 0.53
NCI-H2347 | 0.828 | 0.763 | 0.792 | 0.723 | 0.873 | 0.589 | 0.524 | 0.609 | 0.498 | 0.675 | 0.921 | 0.541 | 0.392 | 0.288 | 0.254 | 0.454 | 0.405 | 0.529 | 0.393 | 0.259
NCI-H2405 | 0.73 | 0.808 | 1.01 | 0.684 | 0.856 | 0.773 | 0.795 | 0.853 | 0.785 | 1 | 0.757 | 0.571 | 0.536 | 0.668 | 0.515 | 0.386 | 0.435 | 0.468 | 0.399 | 0.357
NCI-H3122 | 0.976 | 0.991 | 0.892 | 0.92 | 1.04 | 0.38 | 0.426 | 0.346 | 0.415 | 0.566 | 0.0988 | 0.106 | 0.0966 |  | 0.065 | 0.347 | 0.369 | 0.397 | 0.379 | 0.415
PC-3 [JPC-3] | 0.835 |  | 0.933 | 0.765 | 0.781 | 0.96 | 0.899 | 1 | 0.855 | 1.03 | 0.74 | 0.779 | 0.63 | 0.635 | 0.587 | 0.491 | 0.445 | 0.493 | 0.507 | 0.539
PC-14 | 0.306 |  | 0.346 | 0.382 | 0.413 | 0.6 |  | 0.553 | 0.558 | 0.758 | 0.134 | 0.147 | 0.149 | 0.0887 | 0.0663 | 0.645 |  | 0.714 | 0.559 | 0.797
RERF-LC-KJ | 1 | 0.916 | 1.21 | 0.977 | 1.01 | 0.458 | 0.485 | 0.535 | 0.573 | 0.52 | 1.3 | 1.25 | 0.959 | 0.512 | 0.44 | 0.462 | 0.445 | 0.396 | 0.457 | 0.458
SW 900 | 0.52 |  | 0.562 | 0.579 | 0.66 | 0.84 | 0.572 | 0.571 | 0.639 | 0.642 | 0.2 | 0.194 | 0.142 | 0.167 | 0.19 | 0.577 | 0.411 | 0.464 | 0.46 | 0.803

— the supplement of paper PMC10307832
